These results are taken from patent publication US10011614B2, “Bis-β-carboline compound and preparation method, pharmaceutical composition and use thereof” (XINJIANG HUASHIDAN PHARMACEUTICAL RESEARCH CO., LTD., priority 2012, dated 2018).

Data set [1] relates to BGC (human gastric cancer cells). Nature of the data set: Antitumor screening in vitro, MTT assay, BGC. It counts as cell-based. The settings on record: Homo sapiens, 48 hours. The method, then: (§1) Cell lines: BGC (human gastric cancer cells), A375 (human malignant melanoma cells), 769-P (human renal carcinoma cells), KB (human oral epidermoid carcinoma cells), SK-OV-3 (human ovarian cancer cells), etc, were selected, and the test method was the MTT assay. Cisplatin was as a positive control.
(§2) Specific methods are as follows: cells growing well in the logarithmic phase were seeded in 96-well plates at a concentration of 1×10^4 cells/ml, and then were placed in 37° C., containing 5% CO2 incubator for 24 hours. After discarding the old solution, changed fresh medium, and added sterilization treatment compound, and then cultured for 48 hours. After discarding the culture medium, 20 ul RPMI1640 medium containing 5 mg/ml MTT were added to each well in 96-well plates and cells were cultured for 4 hours. After the supernatant was carefully removed, 100 μl DMSO was added to each well, and the plates were Oscillated about 10 min to dissolve the precipitate, followed by detecting OD value in wavelength 490 nm by the microplate reader. Cell survival rate for each sample concentrations was determined by the following formula: The mean survival rate %=the average OD value of sample group/the average OD value of control group×100%
(§3) Morphological studies by mapping with the logarithm of the drug concentration and the mean survival rate % of each sample to obtain IC50 values for each sample.
On the technique in general: Tetrazolium dyes change colour on reduction, which living cells bring about.

The test system of data set [2] is A375 (human malignant melanoma cells). Nature of the data set: Antitumor screening in vitro, MTT assay, A375. In kind it is cell-based. To be noted: Homo sapiens, A-375, 48 hours. The method, then: as §1, §2, §3
Data set [3] relates to 769-P (human renal carcinoma cells). Nature of the data set: Antitumor screening in vitro, MTT assay, 769-P. In kind it is cell-based. The settings on record: Homo sapiens, 48 hours, 769-P cells. How it is done:
as §1, §2, §3

Data set [4] deals with KB (human oral epidermoid carcinoma cells). Nature of the data set: Antitumor screening in vitro, MTT assay, KB. In kind it is cell-based. To be noted: Homo sapiens, 48 hours. How it is done:
as §1, §2, §3

In data set [5] the test system is SK-OV-3 (human ovarian cancer cells). Nature of the data set: Antitumor screening in vitro, MTT assay, SK-OV-3. It counts as cell-based. The settings on record: Homo sapiens, 48 hours, SK-OV-3 cells. How it is done: as §1, §2, §3
Data set [6] can be described thus: in vivo. The settings on record: both, Kunming, mouse, in vivo, ip. How it is done: Solvent: 0.9% saline and 0.5% CMC-Na solution. According to pre-test results, design 5 dose gradient for each sample, dose spacing was 0.8 times. […] Experimental volume is 0.5 ml/20 g mouse. A single intraperitoneal administration is used. Kunming mice were taken and grouped randomly by gender, and intraperitoneal administration according to dose designation was set to observe the immediate reaction after administration in mice. Dead animals were dissected to observe, surviving animals continued to observe two weeks, and the animal deaths in two weeks were recorded. After two weeks, surviving animals were dissected, observed substantial organ lesions, and the organs having substantive lesions were further for histological examination. According to the number of deaths in each group of animals, calculating the median lethal dose (LD50 value) by Bliss method, and further, calculating the maximum tolerated dose (MTD) for less toxic compounds.

By IC50 is commonly meant the concentration at which inhibition is half-maximal. Read a low IC50 as greater potency in that assay. In general, LD50 refers to the dose expected to kill half of the subjects tested. Usually melting point stands for the temperature of the solid-liquid transition.

For the molecule `c1ccc2c(c1)c1ccncc1n2CCCCn1c2ccccc2c2ccncc21` [Compound 1, 1,4-bis(β-carboline-9-yl) butane], the IC50 was 59.7 µM in data set [1]; more than 300 µM in data set [2]; 199 µM in data set [3]; more than 300 µM in data set [4]; more than 300 µM in data set [5]. In data set [6], this molecule returned an LD50 at 2 weeks of 200 mg/kg.
Molecule `Cc1nccc2c3ccccc3n(CCCn3c4ccccc4c4ccnc(C)c43)c12` [Compound 6, 1,3-bis (1-methyl-β-carboline-9-yl) propane] returned a melting point of 239 to 240 °C. Further, the IC50 in data set [1] stood at 252 µM. Moreover, in data set [2], the midpoint of inhibition, the IC50, lay at 69.5 µM. In addition, the midpoint of inhibition in data set [3], the IC50, lay at 145 µM. This molecule also registered an IC50 in data set [4] of 160 µM. The midpoint of inhibition in data set [5], the IC50, lay at 26.4 µM.
Regarding `Cc1nccc2c3ccccc3n(CCCCn3c4ccccc4c4ccnc(C)c43)c12` [Compound 7, 1,4-bis(1-methyl-β-carboline-9-yl) butane], the IC50 in data set [1] was determined as 22.3 µM; in data set [2] it was 13.1 µM; in data set [3], 6.5 µM; in data set [4], 6.4 µM; in data set [5], 4.8 µM. This molecule came in with an LD50 at 2 weeks in data set [6] of 200 mg/kg.
As to `Cc1nccc2c3ccccc3n(CCCCCn3c4ccccc4c4ccnc(C)c43)c12` [Compound 8, 1,5-bis(1-methyl-β-carboline-9-yl)pentane], the melting point fell in the range of 213 to 214 °C. Besides, in data set [1], the IC50 is more than 300 µM. The same molecule registered an IC50 in data set [2] of more than 300 µM. The molecule also came in with an IC50 in data set [3] of more than 300 µM. Also, the IC50 in data set [4] is more than 300 µM. In data set [5], this molecule displayed a concentration for half-maximal inhibition (IC50) of 18.8 µM.
Turning to `Cc1nccc2c3ccccc3n(CCCCCCn3c4ccccc4c4ccnc(C)c43)c12` [Compound 9, 1,6-bis(1-methyl-β-carboline-9-yl) hexane], the IC50 was more than 300 µM in data set [1]; more than 300 µM in data set [2]; 51.7 µM in data set [3]; more than 300 µM in data set [4]; 96.8 µM in data set [5]. The LD50 at 2 weeks in data set [6] turned out to be 200 mg/kg.
Molecule `Cc1nccc2c3ccccc3n(CCCCCCCn3c4ccccc4c4ccnc(C)c43)c12` [Compound 10, 1,7-bis(1-methyl-β-carboline-9-yl) heptane] came in with a melting point of 189 to 190 °C. For the same molecule, the IC50 in data set [1] was determined as 134 µM. Besides, in data set [2], the IC50 was 38 µM. Moreover, in data set [3], the IC50 was found to be 149 µM. The molecule further returned an IC50 in data set [4] of 87.9 µM. This molecule also yielded an IC50 in data set [5] of 16.9 µM.
For the molecule `Cc1nccc2c3ccccc3n(CCCCCCCCn3c4ccccc4c4ccnc(C)c43)c12` [Compound 11, 1,8-bis(1-methyl-β-carboline-9-yl) octane], the IC50 was more than 300 µM in data set [1]; more than 300 µM in data set [2]; 3.1 µM in data set [3]; more than 300 µM in data set [4]; more than 300 µM in data set [5]. For the same molecule, the LD50 at 2 weeks in data set [6] is 200 mg/kg.
In turn, `Cc1nccc2c3ccccc3n(CCCCCCCCCn3c4ccccc4c4ccnc(C)c43)c12` [Compound 12, 1,9-bis(1-methyl-β-carboline-9-yl) nonane] displayed a melting point of 155 to 156 °C. Further, in data set [1], the IC50 is more than 300 µM. Besides, half-maximal inhibition in data set [2] (IC50) required 67.2 µM. Besides, in data set [3], 291 µM corresponded to half-maximal inhibition (IC50). The molecule further registered an IC50 in data set [4] of more than 300 µM. Moreover, the IC50 in data set [5] was determined as 61.9 µM.
In the case of `Cc1nccc2c3ccccc3n(CCCCCCCCCCn3c4ccccc4c4ccnc(C)c43)c12` [Compound 13, 1,10-bis(1-methyl-β-carboline-9-yl) decane], the melting point was in the range of 152 to 154 °C. The molecule further yielded an IC50 in data set [1] of more than 300 µM. The IC50 in data set [2] is more than 300 µM. It took 16.2 µM to reach half-maximal inhibition in data set [3] (IC50). The molecule also gave an IC50 in data set [4] of more than 300 µM. In data set [5], this molecule gave an IC50 of 8.5 µM.
Consider `COc1ccc2c3ccnc(C)c3n(CCCCn3c4cc(OC)ccc4c4ccnc(C)c43)c2c1` [Compound 14, 1,4-bis(7-methoxy-1-methyl-β-carboline-9-yl) butane], for which the half-maximal inhibitory concentration (IC50) in data set [1] was determined as 75.7 µM; in data set [2], 6.2 µM; in data set [3] it was 65.6 µM; in data set [4], 2.8 µM; in data set [5], 7.1 µM. This molecule also had an LD50 at 2 weeks in data set [6] of 50 mg/kg.
`COc1ccc2c3ccnc(C)c3n(CCCCCn3c4cc(OC)ccc4c4ccnc(C)c43)c2c1` [Compound 15, 1,5-bis(7-methoxy-1-methyl-β-carboline-9-yl)pentane] had a melting point of 180 to 181 °C. In data set [1], this molecule displayed an IC50 of 58.6 µM. Besides, in data set [2], the IC50 is less than 1.38 µM. Besides, in data set [3], the IC50 was 81 µM. Besides, the IC50 in data set [4] was found to be 5 µM. Besides, the IC50 in data set [5] is 1.7 µM.
Turning to `COc1ccc2c3ccnc(C)c3n(CCCCCCCn3c4cc(OC)ccc4c4ccnc(C)c43)c2c1` [Compound 17, 1,7-bis(7-methoxy-1-methyl-β-carboline-9-yl) heptane], the 50% inhibitory concentration (IC50) was more than 300 µM in data set [1]; 35.3 µM in data set [2]; more than 300 µM in data set [3]; 155 µM in data set [4]; 11.7 µM in data set [5]. The molecule also showed an LD50 at 2 weeks in data set [6] of 200 mg/kg.
`Cc1nccc2c3cc(Br)ccc3n(CCCCC(C)n3c4ccc(Br)cc4c4ccnc(C)c43)c12` (stereo not drawn) [Compound 21, 1,5-bis(6-bromo-1-methyl-β-carboline-9-yl) hexane] registered a melting point of 208 to 209 °C. This molecule showed an IC50 in data set [1] of more than 300 µM. The molecule also registered an IC50 in data set [2] of more than 300 µM. The same molecule had an IC50 in data set [3] of 4.3 µM. The molecule also came in with an IC50 in data set [4] of more than 300 µM. Further, the IC50 in data set [5] was more than 300 µM.
Take `Cc1nccc2c3cc(Br)ccc3n(CCCCCCn3c4ccc(Br)cc4c4ccnc(C)c43)c12` [Compound 22, 1,6-bis(6-bromo-1-methyl-β-carboline-9-yl) hexane]: the IC50 is more than 300 µM in data set [1]; more than 300 µM in data set [2]; more than 300 µM in data set [3]; more than 300 µM in data set [4]; 63.4 µM in data set [5]. Besides, the LD50 at 2 weeks in data set [6] came out at 200 mg/kg.
`CCCCOc1ccc2c3ccnc(C)c3n(CCCCn3c4cc(OCCCC)ccc4c4ccnc(C)c43)c2c1` [Compound 23, 1,4-bis(7-n-butoxy-1-methyl-β-carboline-9-yl) butane] came in with a melting point of 193 to 194 °C. Moreover, the half-maximal inhibitory concentration (IC50) in data set [1] came out at 8.5 µM. The molecule further returned an IC50 in data set [2] of 3.8 µM. The molecule also came in with an IC50 in data set [3] of more than 300 µM. For the same molecule, in data set [4], the midpoint of inhibition, the IC50, lay at 6.8 µM. In data set [5], this molecule displayed an IC50 of 5.5 µM.
Molecule `c1cncc(-c2nccc3c4ccccc4n(CCCCn4c5ccccc5c5ccnc(-c6cccnc6)c54)c23)c1` [Compound 31, 1,4-bis[1-(pyridine-3-yl)-β-carboline-9-yl) butane] showed a melting point of 224 to 225 °C. In addition, in data set [1], the IC50 is 270 µM. The same molecule showed a half-maximal inhibitory concentration (IC50) in data set [2] of 85.3 µM. This molecule gave an IC50 in data set [3] of more than 300 µM. In addition, the IC50 in data set [4] was more than 300 µM. Moreover, in data set [5], the IC50 was found to be 36.8 µM.
`c1ccc2c(c1)c1ccnc(-c3ccsc3)c1n2CCCCCCn1c2ccccc2c2ccnc(-c3ccsc3)c21` [Compound 33, 1,6-bis[1-(3-thienyl)-β-carboline-9-yl) hexane] registered a melting point of 198 to 199 °C. Moreover, in data set [1], the IC50 is more than 300 µM. In data set [2], this molecule showed an IC50 of more than 300 µM. For the same molecule, in data set [3], the IC50 is more than 300 µM. The IC50 in data set [4] is more than 300 µM. For the same molecule, in data set [5], the half-inhibitory concentration (IC50) came out at 67.6 µM.
As for `CC(C)c1nccc2c3ccccc3n(CCCCCCn3c4ccccc4c4ccnc(C(C)C)c43)c12` [Compound 39, 1,6-bis(1-isopropyl-β-carboline-9-yl) hexane], the melting point was in the range of 241 to 242 °C. Besides, the IC50 in data set [1] was more than 300 µM. Also, the IC50 in data set [2] came out at 53.5 µM. Also, inhibition in data set [3] was half-maximal at 18.5 µM (IC50). For the same molecule, the half-maximal inhibitory concentration (IC50) in data set [4] stood at 253 µM. The molecule further returned a half-maximal inhibitory concentration (IC50) in data set [5] of 31.8 µM.
